Source: a melting point compilation (Tetko et al.; mined from patent text by program, amines drawn as free bases though some values may be those of a salt)

| Structure (SMILES) | melting point |
| --- | --- |
| CNc1nc(C)c(-c2ccnc(Nc3cccc(S(=O)(=O)NCCO)c3)n2)s1 | 189 to 190 °C |
| O=C1Cc2cc([N+](=O)[O-])ccc2Sc2ccccc21 | 171 to 172 °C |
| CCCc1c(O[C@H]2CCC[C@H](Oc3ccc(C(=O)CCC(=O)O)cc3)C2)ccc(C(C)=O)c1O (relative stereo) | 90 to 94 °C |
| CCCN(C)S(=O)(=O)c1nnc(NC(=O)N(C)C)s1 | 152 to 153 °C |
| C=CC(=O)Nc1cccc(-c2ccnc3c(C(=O)c4cccs4)cnn23)c1 | 192 to 194 °C |
| Oc1ccc(-c2nc(Br)c[nH]2)cc1 | 210 to 212 °C |
| Cn1cnc(S(=O)(=O)NC(CN2CCOCC2)CN2CCOCC2)c1 | 191 to 192 °C |
| N#CC(N=Cc1ccc([N+](=O)[O-])cc1)=C(Cl)Cl | 171 to 174 °C |
| NCCCn1nc2c3c(c(Cl)ccc31)C(=O)c1c(OCc3ccccc3)ccc(OCc3ccccc3)c1-2 | 180 to 184 °C |
| CN(CCOc1ccccc1)[C@H]1CC[C@H](c2ccc(O)cc2)CC1 | 90 to 92 °C |
| COC(=S)c1c[nH]c(-c2ccccc2)c1 | 107 to 109 °C |
| Brc1ccc2c3nc4ccccc4[nH]c-3nc2c1 | > 300 °C |
| Cc1oc(-c2ccccc2)nc1CCc1ccc(CCCC2OC(=O)NC2=O)cc1 (centres undefined) | 112 to 113 °C |
| COC(=O)c1nccc2c1[nH]c1ccc(Oc3ccc([N+](=O)[O-])cn3)cc12 | 150 to 155 °C |
| CCCC(=O)CS(N)(=O)=O | 117 °C |
| CCc1ncc2n1-c1ccc(Cl)cc1C(c1ccccc1F)=NC2 | 140 to 143 °C |
| CC(=O)Nc1ccc(S(=O)(=O)Nc2cc(C)c(S(=O)(=O)C[N+](=O)[O-])c(C)c2)cc1 | 209 to 210 °C |
| CN1CCC(C2(O)c3ccccc3Oc3ccc(C(F)(F)F)cc32)CC1 (centres undefined) | 179 to 183 °C |
| Cc1noc(NC(=O)N2CCN(c3nccc(-c4ccc(F)cc4F)n3)CC2)c1C | 197 to 198 °C |
| CC(=O)c1nc(-c2ccncc2)[nH]c1C | 181 to 183 °C |
| C=CCNc1cc(C)nc2cn[nH]c12 | 172 to 174 °C |
| CC(C)(C)OC(=O)Nc1cc(N2CCOCC2)c(I)cc1[N+](=O)[O-] | 43 to 44 °C |
| CCCc1cc(C(O)=S)cc(N)c1-c1ccccc1 | 190 to 191 °C |

| Structure (SMILES) | melting point |
| --- | --- |
| CCCCN(Cc1ccccc1)C(=O)Nc1ccc(C)cc1C | 70 to 71 °C |
| COc1cc(-c2ccccc2F)nc(-c2cccc(C)n2)n1 | 99.5 °C |
| O=C(O)Cc1ccc2c3c(ccc2c1)OCC3 | 181 to 183 °C |
| Cc1cccc(NC(=O)NC2N=C(c3ccccc3F)c3ccccc3N(Cc3ncccc3C)C2=O)c1 (racemic) | 216 to 217 °C |
| CC(=O)C1CCC2C3CCC4CC(OS(C)(=O)=O)CCC4(C)C3C(OC(=O)CI)CC12C (centres undefined) | 142 to 143 °C |
| Cc1oc(-c2ccco2)nc1COc1ccc(CON=C(CCCCCCC(=O)O)c2ccccc2)cc1 | 75 to 77 °C |
| Cc1nn2c(C(F)(F)F)cc(-c3ccc(C(F)(F)F)cc3)nc2c1C#N | 184 °C |
| CC1CC(=O)Nc2nc(Br)c3ncccc3c21 (centres undefined) | 251 to 252 °C |
| O=C(Nc1cc(Cl)cc(Cl)c1)Nc1ccc(Br)cc1-c1nnn[nH]1 | 263 to 264 °C |
| O=C(O)CN1C(=O)SC(=Cc2ccc(OCc3ccccc3)c(OCc3ccccc3)c2)C1=O | 167 to 170 °C |
| COC(=O)N1CSC(=Cc2cc(C(C)(C)C)c(O)c(C(C)(C)C)c2)C1=O | 165 to 168 °C |
| Clc1ncccc1-c1ccccn1 | 50 °C |
| O=C(O)c1cn(C2CCC2)c2c(F)c(F)c(F)cc2c1=O | 192 to 194 °C |
| CC(c1ccc(-c2ccccc2)c(F)c1)c1nc(CC(=O)O)no1 (centres undefined) | 100 to 102 °C |
| COC[C@H]1CC[C@H](c2ccc(I)cc2)CC1 | 40.3 to 42.3 °C |
| O=C(O)C1(C(=O)O)CCC(c2c(-c3ccccc3)[nH]c3ccccc23)CC1 | 196 to 197 °C |
| N#Cc1cccc2c1ccc1nc(O)c(O)nc12 | > 300 °C |
| COc1ccc(N(CCCC(=O)O)C(=O)C(C)N(C(=O)c2cccc(C(F)(F)F)c2)c2ccc(OC)cc2)cc1 (centres undefined) | 119 to 121 °C |
| C=CCN(CC=C)NC(=S)Nc1ccc(F)cc1 | 73 to 74 °C |
| CCOC(=O)c1c(N)n(CC)c2nc(Cl)ccc2c1=O | 252 °C |
| Cn1nc(CO)nc1NCCCOc1cccc(CN2CCCCC2)c1 | 118 to 119 °C |
| COc1cc(-n2nc(C(F)(F)F)cc2-c2ccc(S(C)(=O)=O)cc2)ccc1Br | 156 to 157 °C |
| C[C@@H]1Cc2cc(Cl)ccc2O[C@H]1c1ccc(Cl)cc1 (relative stereo) | 135 to 137 °C |

| Structure (SMILES) | melting point |
| --- | --- |
| CCOC(=O)c1c(C(C)C)csc1N | 61 to 61.5 °C |
| CC(C)=CCN1CC(NC(=O)Nc2cccc(C(=O)O)c2)C(=O)N(CC(=O)c2ccccc2C)c2cc(C)ccc21 (centres undefined) | 129 to 131 °C |
| CC(=O)Nc1nc(-c2ccc(S(C)=O)cc2)cs1 (centres undefined) | 274 °C |
| CC1(C)CC(OC(=O)CCCCCCCCC(=O)OC2CC(C)(C)N(CC#N)C(C)(C)C2)CC(C)(C)N1CC#N | 91 °C |
| COc1cc2nc(N3CCN(C(=O)C4CC=CCC4)CC3)nc(N)c2cc1OC (centres undefined) | 211 to 213 °C |
| COC(=O)C1Cc2c(ncn2Cc2ccc(N)c(C)c2)CN1C(=O)C(c1ccccc1)c1ccccc1 (centres undefined) | 182 to 188 °C |
| O=C(C1=CCCCC1)c1cc(-c2ccccc2)no1 | 70 to 71 °C |
| CCCCc1oc2ccccc2c1-c1ncc(-c2ccc3c(Br)c(OCc4ccc(C(=O)OC)cc4)ccc3c2)o1 | 143 to 145 °C |
| O=Cc1csc2cc([N+](=O)[O-])ccc12 | 187 to 192 °C |
| CC(C)c1cc(C(C)C)c(CC(=O)NS(=O)(=O)Oc2c(C(C)C)cc(O)cc2C(C)C)c(C(C)C)c1 | 182 to 183 °C |
| CCn1c(=O)c2[nH]c(/C=C/c3cccc(Cl)c3)nc2n(CC)c1=O | > 280 °C |
| Cc1ccccc1C(=O)Nc1ccc(C(=O)N2CCCC(NC(=O)Cn3ccnc3)c3ccccc32)cc1 (centres undefined) | 250 to 252 °C |
| Cn1cnc([N+](=O)[O-])c1Sc1nc(N)nc2c1ncn2C1C=CC(CO)C1 (centres undefined) | 207 to 208 °C |
| N#Cc1ccc(C=Cc2ccc(-c3ccccc3)cc2)cc1 | 235 to 254 °C |
| Cc1nc(C2CCC(NC(=O)OCC3c4ccccc4-c4ccccc43)CC2)cs1 (centres undefined) | 140 to 141 °C |
| O=c1c2cc(O)ccc2[nH]c2c([N+](=O)[O-])cc([N+](=O)[O-])c(Cl)c12 | 278 to 281 °C |
| CN1CCN(c2cc(Cl)cc3c2c(=O)n(CCc2ccccc2)c(=O)n3Cc2ccccc2)CC1 | 136 to 138 °C |
| CCCCCCCCCCCCCCCCCCOc1ccc(C=Cc2ccc(S(=O)(=O)CCCO)cc2)cc1 | 137 °C |
| CN1CCN(C(=O)c2cc([N+](=O)[O-])cc3c2OCCO3)CC1 | 218 °C |
| c1ccc(CN2CCC3(CC2)OCCCO3)cc1 | < 50 °C |
| CC1Cc2cc(S(N)(=O)=O)cc(C(=O)NCC3CCCN3C)c2O1 (centres undefined) | 187 to 189 °C |
| Cc1ccc([C@@H]2Sc3ccccc3NC(=O)[C@@H]2CN2CCN(C)CC2)cc1 (relative stereo) | 196 °C |
| Cc1oc(-c2ccccc2)nc1CCOc1ccc(C[C@H](NC(=O)C=Cc2cccc(Cl)c2)C(=O)O)cc1 | 204 to 206 °C |
